Data from patent US9040563B2, “Dual inhibitors of farnesyltransferase and geranylgeranyltransferase I” (H. Lee Moffitt Cancer Center and Research Institute, Inc., priority 2010, dated 2015).
Values joined by “and” are separate entries in the source; they are usually repeats but may differ in a detail not shown here. Identical values can stand only once. Like-named read-outs stand apart in the source and are kept apart here.

How the values were obtained:
GGTase-I = GGTase-I (Homo sapiens, UniProt P49354+P53609); test: In vitro GGTase-I inhibition: incorporation of [3H]GGPP into recombinant H-Ras-CVLL; type: biochemical; details: average of n = 3 unless stated, errors are standard deviations, read-out: GGTase-1 IC50
[1] = system: geranylgeranylation of Rap1A; test: Whole cell inhibition of Rap1A processing (geranylgeranylation), immunoblot, oncogenic H-Ras-transformed NIH3T3 cells; type: cell-based, mouse; details: whole cells, oncogenic H-Ras-transformed NIH3T3, n = 3 unless stated, read-out: Rap1A processing IC50
Protocol: (§1) In vitro inhibition assays for FTase and GGTase-I were conducted by measuring the incorporation of [^3H]FPP and [^3H]GGPP into recombinant H-Ras-CVLS and H-Ras-CVLL, respectively, as previously described (Vogt, et al., Protein geranylgeranylation, not farnesylation, is required for the G1 to S phase transition in mouse fibroblasts. Oncogene, 1996, 13, 1991-1999). The in vivo inhibition of farnesylation and geranylgeranylation was determined based on the level of inhibition by synthetic compounds of H-Ras and Rap1A processing, respectively (Sun, et al., Both farnesyltransferase and geranylgeranyltransferase I inhibitors are required for inhibition of oncogenic K-Ras prenylation but each alone is sufficient to suppress human tumor growth in nude mouse xenografts. Oncogene, 1998, 16, 1467-1473). […] The separated proteins were transferred to nitrocellulose and immunoblotted using an anti-Ras antibody (Y13-258) or an anti-Rap1A antibody (SantaCruz Biotechnology, Santa Cruz, Calif.), respectively. Antibody reactions were visualized using either peroxidase-conjugated goat anti-rat IgG or goat anti-rabbit IgG (Jackson ImmunoResearch, West Grove, Pa.) and an enhanced chemiluminescence detection system.
(§2) Briefly, in vitro inhibition assays for hFTase and GGTase-I were carried out by measuring the incorporation of [^3H]FPP and [^3H]GGPP into recombinant H-Ras-CVLS and H-Ras-CVLL, respectively, as described previously (Vogt et al., Protein geranylgeranylation, not farnesylation, is required for G1 to S phase transition in mouse fibroblasts. Oncogene. 1996; 13:1991-1999). Whole cell inhibition of farnesylation and geranylgeranylation were determined based on the level of inhibition by synthetic compounds of H-Ras and Rap1A processing, respectively (Sun, et al., Both farnesyltransferase and geranylgeranyltransferase I inhibitors are required for inhibition of oncogenic K-Ras prenylation but each alone is sufficient to suppress human tumor growth in nude mouse xenografts. Oncogene. 1998; 16:1467-1473).

hFTase = hFTase (Homo sapiens, UniProt P49354+P49356); test: In vitro hFTase inhibition: incorporation of [3H]FPP into recombinant H-Ras-CVLS; type: biochemical; details: for selectivity (ratio of GGTase-I to FTase IC50s): GGTase-I IC50 / hFTase IC50; for IC50: in vitro, average of three independent assays (n = 3) unless stated, errors are standard deviations
farnesylation of H-Ras = test: Whole cell inhibition of H-Ras processing (farnesylation), immunoblot, oncogenic H-Ras-transformed NIH3T3 cells; type: cell-based, mouse; details: Mus musculus, NIH3T3, whole cells, oncogenic H-Ras-transformed NIH3T3; n = 3 unless stated; read-out: H-Ras processing IC50
Protocol: as §1, §2

[2] = system: Rap-1A geranylgeranylation; test: Western blot of Rap-1A geranylgeranylation/processing (antibody to un-geranylgeranylated Rap-1A) in treated cells; type: cell-based
Protocol: The ability of FGTI-2734 to inhibit HDJ-2 farnesylation and Rap-1A geranylgeranylation in human cancer cells was determined next. To this end, the MiaPaca pancreatic cancer cell line and 2 breast cancer cell lines (MDA-MB-468 and MDA-MB-231) were treated with various concentration of the dual inhibitor FGTI-2734, the GGT-1 inhibitor GGTI-2418 or the FT inhibitor FTI-2153 and processed for Western blotting.
Testing has shown that the dual farnesyltransferase and geranygeranyltransferase-I inhibitors are effective on pancreatic tumors (90% of all cases), colonic tumors (30% of all cases), lung tumors (30% of all cases), and breast tumors (10% of all cases). NIH-3T3 cells that overexpress oncogenic mutant K-Ras, seen in FIG. 14, and MDA-MB-231 breast cancer cells with a naturally occurring K-Ras mutation, seen in FIG. 15, were treated with indicated concentrations of FGTI-2734, GGTI-2417 or FTI-2153. FGTI-2734 but not FTI-2153 or GGTI-2417 inhibited K-Ras prenylation. As expected, GGTI-2417 inhibited the processing of Rap1 but not HDJ-2 whereas FTI-2153 inhibited the processing of HDJ-2 but not Rap1.
Mammalian target of rapamycin (mTOR) is a serine/threonine phosphatidylinositol 3-kinase-related kinase responsible for cell growth, proliferation, cell survival, protein synthesis, and transcription. Alteration of the mTOR pathway, either through activation of oncogenes or inactivation of tumor suppressors, disrupts a signaling equilibrium and causes malignant transformation. Studies have shown that phosphorylated S6 (pS6) is related to mTOR pathway alterations, and is useful in determining PI3K-based cancer therapies (Aziz, et al. Phosphatidylinositol-3-Kinase as a Therapeutic Target in Melanoma. Clin Cancer Res. 2009, 15; 3029-3036). Two breast adenocarcinoma and a pancreatic carcinoma cell line were treated with indicated concentrations of FGTI-2734, GGTI-2417 or FTI-2153. Protein extracts were run on a Western Blot using antibody against pS6 (ser240/244) (Cell Signaling Technology, Inc., Danvers, Mass.). […]

NCI-H460 = test: MTT proliferation/viability assay; type: cell-based; details: Homo sapiens, NCI-H460, lung
Protocol: (§3) To determine if FGTI-2734 is more efficacious than FT or GGT-1 inhibitors, 10 human cancer pancreatic cell lines, 2 human breast cancer cell lines, 2 human lung cancer cell lines and one human prostate cancer cell line were treated with these inhibitors and determined their effects on the proliferation of these cells by MTT assay.

ASPC-1 = test: MTT proliferation/viability assay; type: cell-based, human
Protocol: as §3

BxPC3 = test: MTT proliferation/viability assay; type: cell-based, human
Protocol: as §3

A549 = test: MTT proliferation/viability assay; type: cell-based, human; details: A549, lung
Protocol: as §3

MiaPaca = test: MTT proliferation/viability assay; type: cell-based, human
Protocol: as §3

HPNE = test: MTT proliferation/viability assay; type: cell-based, human; details: pancreas
Protocol: as §3

Panc-1 = test: MTT proliferation/viability assay; type: cell-based, human; details: Panc-1, pancreas
Protocol: as §3

HPDE-C7-Kras = test: MTT proliferation/viability assay; type: cell-based, human; details: pancreas
Protocol: as §3

SW1990 = test: MTT proliferation/viability assay; type: cell-based, human
Protocol: as §3

HPDE-C7 = test: MTT proliferation/viability assay; type: cell-based, human; details: HPDE-C7, pancreas
Protocol: as §3

Capan-2 = test: MTT proliferation/viability assay; type: cell-based, human
Protocol: as §3

DU-145 = test: MTT proliferation/viability assay; type: cell-based, human
Protocol: as §3

HPNE-K-ras = test: MTT proliferation/viability assay; type: cell-based, human; details: pancreas
Protocol: as §3

MCF-7 = test: MTT proliferation/viability assay; type: cell-based, human
Protocol: as §3

Structure (SMILES): CCCS(=O)(=O)N(CCN(Cc1cncn1C)c1ccc(C#N)cc1)Cc1ccccc1 [compound 1b, N-Benzyl, N-{2-[(4-cyanophenyl)-(3-methyl-3H-imidazol-4-ylmethyl)-amino]-ethyl}propane-1-sulfonamide]
- IC50 (GGTase-I): 4.1 ± 1.7 µM
- IC50 ([1]; Mus musculus): > 10 µM
- selectivity (ratio of GGTase-I to FTase IC50s) (hFTase): 85
- IC50 (hFTase): 0.048 ± 0.035 µM

Structure (SMILES): Cn1cncc1CN(CCN(Cc1ccccc1)S(=O)(=O)c1cccs1)c1ccc(C#N)cc1 [1e]
- IC50 (GGTase-I): ≥ 10 µM
- IC50 ([1]; Mus musculus): > 10 µM
- selectivity (ratio of GGTase-I to FTase IC50s) (hFTase): 200

Structure (SMILES): Cn1cncc1CN(CCN(Cc1ccccc1)S(=O)(=O)c1cccc2cccnc12)c1ccc(C#N)cc1 [1g]
- IC50 (GGTase-I): ≥ 10 µM
- IC50 ([1]; Mus musculus): > 10 µM
- GGTase-I/FTase selectivity (hFTase; selectivity for hFTase over GGTase-I): 333 fold

Structure (SMILES): Cn1cnc(S(=O)(=O)N(CCN(Cc2cncn2C)c2ccc(Br)cc2)Cc2ccccc2)c1 [compound 5]
- IC50 (farnesylation of H-Ras): 1.6 ± 1.3 µM
- IC50 (GGTase-I): 0.53 ± 0.17 µM
- IC50 [1]: > 10 µM
- selectivity (ratio of GGTase-I to FTase IC50s) (hFTase): 6.7
- IC50 (hFTase): 0.079 ± 0.03 µM

Structure (SMILES): COC(=O)[C@H](CC(C)C)NC(=O)N1CCN(Cc2nc[nH]c2C)C(=O)[C@@H]1Cc1ccccc1 [GGTI-2417, reference compound]
- inhibition of Rap1 processing ([2]; NIH-3T3 overexpressing mutant K-Ras and MDA-MB-231, FIGS. 14, 15): inhibited

Structure (SMILES): Cc1nc[nH]c1CN1CCN(C(=O)N[C@@H](CC(C)C)C(=O)O)[C@@H](Cc2ccccc2)C1=O [GGTI-2418]
- IC50 (NCI-H460): > 100 µM
- inhibition of Rap-1A geranylgeranylation ([2]; MiaPaca, MDA-MB-468 and MDA-MB-231 human cancer cells, FIG. 13): inhibited selectively
- IC50 (ASPC-1; Homo sapiens, ASPC1, ASPC-1, pancreas): > 100 µM
- IC50 (BxPC3; Homo sapiens, BXPC-3, BxPC3, pancreas): > 100 µM
- IC50 (A549; Homo sapiens): > 100 µM
- IC50 (MiaPaca; Homo sapiens, MIA PaCa-2, pancreas): > 100 µM
- IC50 (HPNE; Homo sapiens): > 100 µM
- IC50 (Panc-1; Homo sapiens): > 100 µM
- IC50 (HPDE-C7-Kras; Homo sapiens): > 100 µM
- IC50 (SW1990; Homo sapiens, SW1990, SW1990, pancreas): > 100 µM
- IC50 (HPDE-C7; Homo sapiens): > 100 µM
- IC50 (Capan-2; Homo sapiens, Capan-2, Capan-2, pancreas): > 100 µM
- IC50 (DU-145; DU-145, prostate): > 50 µM
- IC50 (DU-145; Homo sapiens, DU-145, DU-145, prostate): > 100 µM
- IC50 (HPNE-K-ras; Homo sapiens): > 100 µM
- IC50 (MCF-7; Homo sapiens, MCF7, MCF-7, breast): > 100 µM

Structure (SMILES): Cn1cnc(S(=O)(=O)N(CCN(Cc2cnc[nH]2)c2ccc(Br)cc2)Cc2ccccc2)c1 [compound 4]
- IC50 (farnesylation of H-Ras): 5.7 ± 1.2 µM
- IC50 (GGTase-I): 4.4 µM
- IC50 ([1]; Mus musculus): > 10 µM
- selectivity (ratio of GGTase-I to FTase IC50s) (hFTase): 6.0
- IC50 (hFTase): 0.73 ± 0.02 µM

Structure (SMILES): CSCC[C@H](NC(=O)c1ccc(CNCc2cnc[nH]2)cc1-c1ccccc1C)C(=O)O [FTI-2148]
- IC50 (ASPC-1; ASPC-1, pancreas): > 100 µM
- IC50 (BxPC3; BxPC3, pancreas): > 100 µM
- IC50 (A549): > 100 µM
- IC50 (MiaPaca; pancreas): 1.2 µM
- IC50 (HPNE): > 100 µM
- IC50 (Panc-1): > 100 µM
- IC50 (HPDE-C7-Kras): > 100 µM
- IC50 (SW1990; SW1990, pancreas): > 100 µM
- IC50 (HPDE-C7): > 100 µM
- IC50 (Capan-2; Capan-2, pancreas): > 100 µM
- IC50 (HPNE-K-ras): > 100 µM
- IC50 (MCF-7; MCF-7, breast): > 100 µM and 50 µM

Structure (SMILES): CN(C)c1cccc2c(S(=O)(=O)N(CCN(Cc3cncn3C)c3ccc(C#N)cc3)Cc3ccccc3)cccc12 [1h]
- IC50 (farnesylation of H-Ras): 0.5 ± 0.3 µM
- IC50 (GGTase-I): ≥ 10 µM
- IC50 ([1]; Mus musculus): > 10 µM
- selectivity (ratio of GGTase-I to FTase IC50s) (hFTase): 63

Structure (SMILES): Cc1nn(C)c(C)c1CN(CCN(Cc1cncn1C)c1ccc(C#N)cc1)S(=O)(=O)c1cn(C)cn1 [compound 1an, [N-(1,3,5-Trimethyl-1H-pyrazol-4-ylmethyl), N-{2-[(4-cyanophenyl)-(3-methyl-3H-imidazol-4-ylmethyl)-amino]-ethyl}]1-methyl-1H-imidazole-4-sulfonamide]
- IC50 (GGTase-I): > 10 µM
- selectivity (ratio of GGTase-I to FTase IC50s) (hFTase): >1.9
- IC50 (hFTase): 5.3 ± 1.7 µM
